Article PMC3556224 (Journal of natural products, 2013)
pKi: −log10 of the molar value.

Columns and labels:
[1] = target: T1, hiCE (Homo sapiens, UniProt O00748); type: cell-based; conditions: 4-MUA, U373MG cells
T1 sequence (O00748 27-559): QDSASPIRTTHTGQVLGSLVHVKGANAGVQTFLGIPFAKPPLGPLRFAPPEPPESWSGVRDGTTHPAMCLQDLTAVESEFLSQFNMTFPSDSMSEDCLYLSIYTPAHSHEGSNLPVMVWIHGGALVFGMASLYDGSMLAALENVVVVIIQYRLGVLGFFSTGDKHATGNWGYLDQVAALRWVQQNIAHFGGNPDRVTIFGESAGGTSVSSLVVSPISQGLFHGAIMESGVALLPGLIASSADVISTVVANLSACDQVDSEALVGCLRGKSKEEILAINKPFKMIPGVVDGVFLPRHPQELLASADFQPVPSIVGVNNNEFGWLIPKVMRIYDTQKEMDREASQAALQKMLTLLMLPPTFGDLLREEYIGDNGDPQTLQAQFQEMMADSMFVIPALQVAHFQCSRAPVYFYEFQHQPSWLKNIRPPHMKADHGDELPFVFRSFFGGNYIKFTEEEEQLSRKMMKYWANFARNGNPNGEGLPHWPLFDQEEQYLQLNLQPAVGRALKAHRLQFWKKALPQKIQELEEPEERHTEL

[2] = target: hBChE (Homo sapiens, UniProt P06276); experiment: Inhibition of hBChE with butyrylthiocholine as substrate; type: biochemical
[3] = target: hAChE (Homo sapiens, UniProt P22303); experiment: Inhibition of hAChE with acetylthiocholine as substrate; type: biochemical
Chain of hAChE (P22303 32-614): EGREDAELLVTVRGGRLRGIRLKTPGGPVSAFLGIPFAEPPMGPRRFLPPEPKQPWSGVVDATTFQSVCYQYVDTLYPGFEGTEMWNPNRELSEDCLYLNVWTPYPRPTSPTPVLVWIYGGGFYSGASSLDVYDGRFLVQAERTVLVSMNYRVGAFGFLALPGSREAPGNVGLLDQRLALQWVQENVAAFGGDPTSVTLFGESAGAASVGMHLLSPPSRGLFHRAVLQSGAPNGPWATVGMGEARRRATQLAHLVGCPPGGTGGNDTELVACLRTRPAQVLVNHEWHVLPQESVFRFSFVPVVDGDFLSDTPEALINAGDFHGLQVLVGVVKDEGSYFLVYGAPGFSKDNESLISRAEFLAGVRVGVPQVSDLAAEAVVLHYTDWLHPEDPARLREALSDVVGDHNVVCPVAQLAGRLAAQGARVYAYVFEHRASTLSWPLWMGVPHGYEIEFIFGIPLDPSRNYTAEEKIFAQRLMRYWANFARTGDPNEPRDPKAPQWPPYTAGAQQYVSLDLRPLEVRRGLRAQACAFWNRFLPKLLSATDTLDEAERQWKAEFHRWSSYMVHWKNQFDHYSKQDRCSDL

Chain of hBChE (P06276 29-602): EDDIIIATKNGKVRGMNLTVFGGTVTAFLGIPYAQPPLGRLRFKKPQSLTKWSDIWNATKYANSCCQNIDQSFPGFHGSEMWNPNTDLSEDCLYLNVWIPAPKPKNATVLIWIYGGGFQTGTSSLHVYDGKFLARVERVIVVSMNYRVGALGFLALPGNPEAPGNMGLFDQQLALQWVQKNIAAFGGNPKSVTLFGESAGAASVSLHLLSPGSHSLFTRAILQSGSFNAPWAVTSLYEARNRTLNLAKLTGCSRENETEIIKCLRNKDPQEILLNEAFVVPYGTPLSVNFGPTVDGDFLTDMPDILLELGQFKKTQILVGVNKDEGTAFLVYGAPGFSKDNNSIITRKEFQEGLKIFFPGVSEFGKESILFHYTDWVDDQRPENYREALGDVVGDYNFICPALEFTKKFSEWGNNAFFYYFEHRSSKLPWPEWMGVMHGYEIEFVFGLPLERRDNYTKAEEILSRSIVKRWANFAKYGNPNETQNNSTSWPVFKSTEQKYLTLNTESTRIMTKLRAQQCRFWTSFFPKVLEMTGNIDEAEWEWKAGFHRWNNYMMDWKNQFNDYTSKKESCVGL

Structure (SMILES) | intracellular inhibition of hiCE (in words) [1] | pKi [2] | inhibition of hAChE (in words) [3] | inhibition of hBChE (in words) [2]
Cc1c(S(=O)(=O)[O-])oc2c1C(=O)C(=O)c1c-2ccc2c1CCCC2(C)C.[Na+] [compound 25, 6,7,8,9,10,11-hexahydro-1,6,6-trimethyl-10,11-dioxo-phenanthro[1,2-b] furan-2-sulfonic acid, sodium salt] | failed to inhibit |  |  | 
Cc1coc2c1C(=O)C(=O)c1c-2ccc2c(C)cccc12 [compound 21, 1,6-dimethyl-phenanthro [1,2-b] furan-10,11-dione] |  | < 4.00 |  | 
C[C@H]1COC2=C1C(=O)C(=O)c1c2ccc2c1CCCC2(C)C [compound 24, 1,2,6,7,8,9-hexahydro-1,6,6-trimethyl-(1R)-phenanthro [1,2-b] furan-10,11-dione] |  |  | modest activity | not BChE
Cc1coc2c1C(=O)C(=O)c1c-2ccc2c1CCCC2(C)C [compound 7, 1,6,6-trimethyl-6,7,8,9-tetrahydrophenanthro[1,2-b] furan-10,11-dione] |  | < 4.00 | did not inhibit | did not inhibit
Cc1cccc2c3c(ccc12)C1=C(C(=O)C3=O)[C@@H](C)CO1 [compound 22, 1,2-dihydro-1,6-dimethyl-(1R)-phenanthro [1,2-b] uran-10,11-dione] |  | < 4.00 | modest activity | not BChE
